# Data taken from patent US12686674B2, “Crystal form of compound represented by formula I, and preparation therefor and application thereof” (Shanghai Zhimeng Biopharma, Inc., priority 2021, dated 2026).
# Legend:
# [1] = Key water activity research, crystal form A and hydrate crystal form E; format: physicochemical; conditions: room temperature
# AMES experiments = format: cell-based
# [2] = Suspension competition of anhydrous crystal forms A/G; format: physicochemical
# Description: In order to study the stability relationship between other anhydrous crystal forms (crystal forms A/G), suspension competition experiments were conducted at room temperature and 60° C. using ACN and EtOAc as solvents.
# [3] = Room temperature storage of crystal form F (XRPD); format: physicochemical; conditions: room temperature (18-20° C./45~75% RH), about 3 days
compound,measurement,setting,value
O=C1CO[C@H](c2cn(-c3ccc(Br)cc3)nc2-c2ccc(F)cc2)N1CCc1ccc2[nH]c(=O)[nH]c2c1,The crystal form obtained (key water activity),"[1]; Water activity(Aw) 0, Acetone/H2O 1000:0 v/v",Crystal form A
same,The crystal form obtained (key water activity),"[1]; Water activity(Aw) 0.2, Acetone/H2O 984:16 v/v",Crystal form A
same,The crystal form obtained (key water activity),"[1]; Water activity(Aw) 0.4, Acetone/H2O 948:52 v/v",Crystal form A
same,The crystal form obtained (key water activity),"[1]; Water activity(Aw) 0.6, Acetone/H2O 857:143 v/v",Crystal form A
same,The crystal form obtained (key water activity),"[1]; Water activity(Aw) 0.8, Acetone/H2O 604:396 v/v",Crystal form A
same,The crystal form obtained (key water activity),"[1]; Water activity(Aw) 1.0, Acetone/H2O 0:1000 v/v",Crystal form E
"Nc1ccc(CCN2C(=O)COC2c2cn(-c3ccc(Br)cc3)nc2-c2ccc(F)cc2)cc1N (centres unmarked) [2-(1-(4-bromophenyl)-3-(4-fluorophenyl)-1H-pyrazole-4-yl)-3-(3,4-diaminophenethyl) oxazolidin-4-one]",AMES experiments,AMES experiments,positive
CC(=O)Nc1ccc(CCN2C(=O)COC2c2cn(-c3ccc(Br)cc3)nc2-c2ccc(F)cc2)cc1[N+](=O)[O-] (centres unmarked) [3-(4-acetylamino-3-nitrophenylethyl)-2-(3-(4-fluorophenyl)-1-(4-bromophenyl)-1H-pyrazole-4-yl) oxazolidin-4-one],AMES experiments,AMES experiments,positive
Nc1ccc(CCN2C(=O)COC2c2cn(-c3ccc(Br)cc3)nc2-c2ccc(F)cc2)cc1[N+](=O)[O-] (centres unmarked) [3-(4-amino-3-nitrophenylethyl)-2-(1-(4-bromophenyl)-3-(4-fluorophenyl)-1H-pyrazole-4-yl) oxazolidin-4-one],AMES experiments,AMES experiments,positive
O=C1CO[C@H](c2cn(-c3ccc(Br)cc3)nc2-c2ccc(F)cc2)N1CCc1ccc2[nH]c(=O)[nH]c2c1 [Crystal form A/G],The crystal form obtained (suspension competition),"[2]; ACN, 60° C., test D220-PS-14-A3",Crystal form A
same,The crystal form obtained (suspension competition),"[2]; ACN, Room temperature(~18° C.), test D220-PS-14-A1",Crystal form A
same,The crystal form obtained (suspension competition),"[2]; EtOAc, 60° C., test D220-PS-14-A4",Crystal form A
same,The crystal form obtained (suspension competition),"[2]; EtOAc, Room temperature(~18° C.), test D220-PS-14-A2",Crystal form A
O=C1CO[C@H](c2cn(-c3ccc(Br)cc3)nc2-c2ccc(F)cc2)N1CCc1ccc2[nH]c(=O)[nH]c2c1 [Crystal form F],crystal form after being placed at room temperature,[3],transformed into crystal form E
